The nature of data set [1]: Mouse brain tissue binding. The class given is in vitro ADME.
In data set [2] the target is T1, human 5-HT1A (Homo sapiens, UniProt P08908).
T1 sequence (P08908 1-422): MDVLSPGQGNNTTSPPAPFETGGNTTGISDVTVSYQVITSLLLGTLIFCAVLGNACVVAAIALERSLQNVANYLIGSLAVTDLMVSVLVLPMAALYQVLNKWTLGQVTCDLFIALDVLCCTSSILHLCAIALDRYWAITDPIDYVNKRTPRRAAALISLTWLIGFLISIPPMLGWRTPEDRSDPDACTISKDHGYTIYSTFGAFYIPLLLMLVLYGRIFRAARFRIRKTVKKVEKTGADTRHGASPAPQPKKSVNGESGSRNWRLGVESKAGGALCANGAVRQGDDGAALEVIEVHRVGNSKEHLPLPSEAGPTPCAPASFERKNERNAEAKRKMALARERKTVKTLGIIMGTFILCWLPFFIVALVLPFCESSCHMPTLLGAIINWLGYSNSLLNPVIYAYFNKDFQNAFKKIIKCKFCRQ
Put plainly: 5-HT1A-mediated cAMP reduction assay (GloSensor, HEK293-T).

In data set [3] the target is T2, 5-HT1A (Homo sapiens, UniProt P08908). Description: BRET signaling assay: 5-HT1A-mediated activation of heterotrimeric Gi1 (TRUPATH, HEK293-T). The following applies: for Efficacy as %5HT 5-HT1A BRET Gi1: Table 6, commercial ligands.
The target in data set [4] is T3, 5-HT2A (Homo sapiens, UniProt P28223). To be noted: for Efficacy as %5HT 5-HT2A BRET Gq: Table 6, commercial ligands.
Data set [5] concerns the target T3, 5-HT2A. Description: cell-based. The following applies: for Emax: read-out: 5-HT2A (IP1) Emax (%5-HT). Also on record: expressed in transfected cells; host or cells: HEK293-T.
The target in the next data set is 5-HT2B (Homo sapiens, UniProt P41595). Put plainly: IP1 functional assay 5-HT2B. The class given is cell-based. The following applies: for Emax: read-out: 5-HT2B (IP1) Emax (%5-HT), Table 3.
In the next data set the test system is C57BL/6J mice. Description: Social interaction test after chronic social defeat stress (CSDS). The following applies: one s.c. administration.
A short description of data set [6]: Microsomal stability, human liver microsomes. The following applies: versus the DMT analogs. The class given is in vitro ADME. On the procedure:
Microsomal incubations were carried out in 96-well plates in 5 aliquots of 30 μL each (one for each time point). Liver microsomal incubation medium comprised of phosphate buffer (100 mM, pH 7.4), MgCl2 (3.3 mM), NADPH (3 mM), glucose-6-phosphate (5.3 mM), glucose-6 phosphate dehydrogenase (0.67 units/ml) with 0.42 mg of liver microsomal protein per ml. In the control reactions the NADPH-cofactor system was substituted with phosphate buffer. Test compounds (2 μM, final solvent concentration 1.6%) were incubated with microsomes at 37° C., shaking at 100 rpm. Each reaction was performed in duplicates. Five time points over 90 minutes were analyzed. The reactions were stopped by adding 5 volumes of methanol containing internal standard to incubation aliquots, followed by protein sedimentation by centrifuging at 5500 rpm for 4 minutes. Supernatants were analyzed using the HPLC system coupled with tandem mass spectrometer. The elimination constant (kel), half-life (t1/2) and intrinsic clearance (Clint) were determined in plot of […] versus time, using linear regression analysis.

For data set [7], the target named is T1, human 5-HT1A. Description: cell-based.
Data set [8] deals with T2, 5-HT1A. Put plainly: cell-based.
Data set [9] concerns the target T3, 5-HT2A. Put plainly: cell-based.
In another data set the target is T4, 5-HT1A A365N (Homo sapiens, UniProt P08908, A365N).
T4 construct: expressed in transfected cells; host or cells: HEK293-T
T4 sequence (P08908 1-422 A365N): T1 sequence (P08908 1-422) with A365N
Put plainly: Gi1 BRET at mutant 5-HT1A A365N. Type of data set: cell-based. The following applies: 5-HT1A A365N^6.55.

For a further data set, the target named is T5, 5-HT2A V366N (Homo sapiens, UniProt P28223, V366N).
T5 construct: expressed in transfected cells; host or cells: HEK293-T
Put plainly: Gq BRET at mutant 5-HT2A V366N. To be noted: mutant vs wildtype 5-HT2A. The class given is cell-based.

The nature of data set [10]: Human plasma protein binding. Type of data set: in vitro ADME.
A short description of data set [11]: Mouse plasma protein binding. Type of data set: in vitro ADME.

This note sets out measurements from patent publication US20260034119A1, “5-METHOXY-N,N-[…][…], THEIR […], AND METHODS FOR TREATMENT OF NEUROLOGICAL, […], AND SUBSTANCE USE DISORDERS” (priority 2023, published 2026).

Changes are numbered by the printed parent chain. Several values for one entry are separate records, joined by “and”; a condition that tells them apart may be missing. Equal values may be shown once. Entries after “also recorded” stand apart in the source; their conditions may differ. Read-outs that look alike come from different tables or passages of the source.

T3 sequence (P28223 whole entry): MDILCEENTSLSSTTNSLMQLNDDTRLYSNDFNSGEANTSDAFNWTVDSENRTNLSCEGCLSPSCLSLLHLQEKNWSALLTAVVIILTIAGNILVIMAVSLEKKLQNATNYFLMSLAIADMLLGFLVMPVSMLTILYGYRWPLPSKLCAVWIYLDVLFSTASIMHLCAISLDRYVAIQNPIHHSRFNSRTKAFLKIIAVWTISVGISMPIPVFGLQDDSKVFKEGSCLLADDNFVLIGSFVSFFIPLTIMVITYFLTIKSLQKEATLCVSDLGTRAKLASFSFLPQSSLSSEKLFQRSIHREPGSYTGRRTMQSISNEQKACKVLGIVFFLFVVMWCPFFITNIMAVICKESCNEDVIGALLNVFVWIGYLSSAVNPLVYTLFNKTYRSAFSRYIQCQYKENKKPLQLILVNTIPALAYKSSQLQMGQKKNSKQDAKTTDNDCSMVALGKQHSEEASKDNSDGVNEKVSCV
Sequence of 5-HT2B (P41595 whole entry, species assumed): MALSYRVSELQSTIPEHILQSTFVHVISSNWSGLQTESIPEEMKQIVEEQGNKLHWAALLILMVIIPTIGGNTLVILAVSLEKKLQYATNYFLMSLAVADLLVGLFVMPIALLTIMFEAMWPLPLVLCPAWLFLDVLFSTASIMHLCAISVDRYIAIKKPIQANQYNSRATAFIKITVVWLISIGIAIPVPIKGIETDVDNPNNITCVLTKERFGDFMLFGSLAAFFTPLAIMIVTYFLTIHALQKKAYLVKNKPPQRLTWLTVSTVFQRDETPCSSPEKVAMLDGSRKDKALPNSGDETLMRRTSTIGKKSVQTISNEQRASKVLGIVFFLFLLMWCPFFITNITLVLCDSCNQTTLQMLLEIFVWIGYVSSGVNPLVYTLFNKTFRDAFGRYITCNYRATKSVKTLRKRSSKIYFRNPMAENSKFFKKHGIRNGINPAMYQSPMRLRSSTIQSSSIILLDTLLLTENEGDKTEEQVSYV
T5 sequence (P28223 whole entry V366N): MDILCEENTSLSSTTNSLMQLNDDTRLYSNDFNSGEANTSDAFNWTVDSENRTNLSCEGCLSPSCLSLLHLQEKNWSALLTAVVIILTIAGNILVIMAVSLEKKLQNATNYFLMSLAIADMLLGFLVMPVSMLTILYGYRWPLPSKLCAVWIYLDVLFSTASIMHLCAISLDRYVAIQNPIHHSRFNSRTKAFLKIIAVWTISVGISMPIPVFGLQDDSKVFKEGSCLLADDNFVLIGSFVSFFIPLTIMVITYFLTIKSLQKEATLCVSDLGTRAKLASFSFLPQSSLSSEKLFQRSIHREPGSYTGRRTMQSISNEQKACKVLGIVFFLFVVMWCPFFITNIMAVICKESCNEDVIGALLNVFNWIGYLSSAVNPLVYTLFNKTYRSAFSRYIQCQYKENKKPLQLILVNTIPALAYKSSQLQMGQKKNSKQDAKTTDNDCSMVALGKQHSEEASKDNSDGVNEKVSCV

On to `NC(=O)N1c2ccccc2C=Cc2ccccc21` [Carbamazepine], for which, in [1], the “% Bound Mean” value amounted to 88.2%, the “% Recovery” value was determined as 72%, the “% Unbound” value is 11.8% and the fu turned out to be 0.118. Moreover, in [1] (4 h), the “% Compound remaining at 4 h” value turned out to be 96%. In data set [1] (replicate R1), the “% Bound R1” value is given as 89.0%.
For the compound `NCCc1c[nH]c2ccc(O)cc12` [Compound 5-HT, 5-hydroxytryptamine, reference compound], the “Normalized (%5HT) Top Mean Gio(cAMP) 1A” value at human 5-HT1A [2] (Table 2) is 100.0 %5HT. Further, on human 5-HT1A [2] (Table 6, commercial ligands), the “Efficacy as %5HT 5-HT1A cAMP” value was 100.0 %5HT. Further, on 5-HT1A [3] (Table 2), the “Normalized (%5HT) Top Mean BRET Gi1-1A” value came to 100.0 %5HT. Besides, the “Efficacy as %5HT 5-HT1A BRET Gi1” value on 5-HT1A [3] stood at 100.0 %5HT. Further, the “Normalized (%5HT) Top Mean BRET Gq-2A” value at 5-HT2A [4] (Table 2) is 100.0 %5HT. Also, the “Efficacy as %5HT 5-HT2A BRET Gq” value at 5-HT2A [4] is recorded as 100.0 %5HT.
As to `CCCN(C)CCc1c[nH]c2ccc(OC)cc12` [Compound 10, 5-MeO-MPT], at 5-HT2A [5], the response was half-maximal at 79 nM (EC50) and the Emax came to 89%. Besides, on 5-HT2B, the EC50 came to 100 nM and the Emax is 61%.
On the same counts, the results for `CCCN(CCC)CCc1c[nH]c2ccc(OC)cc12` [Compound 13, 5-methoxy-N,N-dipropyl-tryptamine] are 82 nM, 94%, 76 nM and 108%.
For `CCN(C)CCc1c[nH]c2ccc(OC)c(F)c12` [Compound 26, N-ethyl-2-(4-fluoro-5-methoxy-1H-indol-3-yl)-N-methylethan-1-amine], the “general locomotion at the social interaction test” value in the data set on C57BL/6J mice (mice) was “no effects on general locomotion”. Besides, the “corner time (anxiety-like behavior)” value in the data set on C57BL/6J mice (stressed mice) is “rescued”. Also, the “social interaction deficit induced by chronic social defeat stress” value in the data set on C57BL/6J mice (stressed mice, test 24 hr post drug, listed as 4-F, 5-MeO-MET) is given as “rescued; also recorded: rescuing the social interaction deficit”. For the same compound, the EC50 was 230 nM on 5-HT2A [5]; 66 nM at 5-HT2B; 0.316 nM on human 5-HT1A [7]; 1.77 nM at 5-HT1A [8]; 99.3 nM at 5-HT2A [9]. Besides, the values for the maximal response (Emax) on 5-HT2A [5] and at 5-HT2B were 90% and 39%, respectively. Further, the “microsomal stability in human microsomes” value in data set [6] is listed as “greater stability in human microsomes versus the DMT analogs”.
`CCCN(CC)CCc1c[nH]c2ccc(OC)c(F)c12` [Compound 29, N-ethyl-(2-(4-fluoro-5-methoxy-1H-indol-3-yl)ethyl)propan-1-amine]: the “microsomal stability in human microsomes” value in data set [6] is listed as “greater stability in human microsomes versus the DMT analogs”. Further, the EC50 at human 5-HT1A [7] worked out at 0.151 nM; on 5-HT1A [8] it was 0.95 nM; on 5-HT2A [9], 155 nM.
On the same counts, the results for `C=CCN(C)CCc1c[nH]c2ccc(OC)c(F)c12` [Compound 34, N-(2-(4-fluoro-5-methoxy-1H-indol-3-yl)ethyl)-N-methylprop-2-en-1-amine] are “greater stability in human microsomes versus the DMT analogs”, 2.57 nM, 8.41 nM and 156 nM.
`CN(C)CCc1c[nH]c2ccc(O)c(F)c12` [Compound 40, 3-(2-(dimethylamino)ethyl)-4-fluoro-1H-indol-5-ol]: the EC50 was found to be 1.13 nM at 5-HT1A [3] (EC50 (nM), Gi1 BRET, 5-HT1A WT); 0.251 nM at human 5-HT1A [7]; 1.13 nM on 5-HT1A [8]; 5.68 nM at 5-HT1A A365N (EC50 (nM), Gi1 BRET); 7.46 nM on 5-HT2A [9]; 7.46 nM on 5-HT2A [9] (EC50 (nM), Gq BRET, 5-HT2A WT).
Regarding `CSc1ccc2[nH]cc(CCN(C)C)c2c1` [Compound 67, N,N-dimethyl-2-(5-(methylthio)-1H-indol-3-yl)ethan-1-amine], the EC50 on 5-HT1A [3] (EC50 (nM), Gi1 BRET, 5-HT1A WT) was 11.7 nM; on human 5-HT1A [7], 2.01 nM; on 5-HT1A [8], 11.7 nM; at 5-HT1A A365N (EC50 (nM), Gi1 BRET), 30.5 nM; on 5-HT1A A365N (pEC50, Gi1 BRET), 30.2 nM; at 5-HT2A [9], 30.1 nM. At 5-HT2A [9] (EC50 (nM), Gq BRET, 5-HT2A WT), this compound gave an EC50 of 30.1 nM.
Regarding `CSc1ccc2[nH]cc(CCN3CCCC3)c2c1` [Compound 69, 5-(methylthio)-3-(2-(pyrrolidin-1-yl)ethyl)-1H-indole], the EC50 at 5-HT1A [3] (EC50 (nM), Gi1 BRET, 5-HT1A WT) was 1.05 nM; at human 5-HT1A [7] it was 0.51 nM and 0.501 nM; on 5-HT1A [8], 1.05 nM; on 5-HT1A A365N (EC50 (nM), Gi1 BRET) it was 5.08 nM; at 5-HT2A [9], 175 nM; on 5-HT2A [9] (EC50 (nM), Gq BRET, 5-HT2A WT), 175 nM.
In the case of `CN(C)CCc1c[nH]c2ccccc12` [DMT], on 5-HT2A [4] (Gq BRET, 5-HT2A WT), a half-maximal response (EC50) required 94.4 nM and the pEC50 result is given as “(7.03,”.
For the compound `CCN(CC)C(=O)[C@@H]1C=C2c3cccc4[nH]cc(c34)C[C@H]2N(C)C1` [LSD, reference compound], the “effect of 5-HT2A V366N mutation on potency and efficacy” value at 5-HT2A V366N is recorded as “increase in signaling efficacy”. In addition, the “Efficacy as %5HT 5-HT2A BRET Gq” value at 5-HT2A [4] is listed as 82.4 %5HT.
With `COc1cc(CCN)cc(OC)c1OC` [Mescaline, reference compound], the EC50 at 5-HT1A [3] (EC50 (nM) 5-HT1A BRET Gi1, Table 6, commercial ligands) stood at 19600 nM; on 5-HT2A [9] (EC50 (nM) 5-HT2A BRET Gq, Table 6, commercial ligands) it was 2400 nM. Besides, the “Efficacy as %5HT 5-HT1A BRET Gi1” value at 5-HT1A [3] is reported as 42.0 %5HT. In addition, the “efficacy at 5-HT2A” value at 5-HT2A [4] was ~100 % of that of serotonin. At 5-HT2A [4] (BRET, FIG. 33A), the “relative potency at 5-HT1A and 5-HT2A” value was “more potent at 5-HT2A”. At 5-HT2A [4], the “Efficacy as %5HT 5-HT2A BRET Gq” value turned out to be 92.6 %5HT.
As to `CC(=O)CC(c1ccccc1)c1c(O)c2ccccc2oc1=O` (stereo not drawn) [Warfarin], the “% Recovery” value in data set [10] is recorded as 108.1%. For the same compound, the “% Compound remaining at 4 h” value in data set [10] (4 h) came to 108.8%. Besides, in data set [11], the “% Recovery” value is listed as 90.9%, the “% Unbound” value is 6.4% and the fu worked out at 0.064. The “% Compound remaining at 4 h” value in data set [11] (4 h) is listed as 103.3%.
Regarding `CN(C)CCc1c[nH]c2cccc(O)c12` [psilocin, Psilocin], the “efficacy at 5-HT2A” value on 5-HT2A [4] is listed as ~50 % of that of serotonin.
